Target: T1, FldH (Fusobacterium nucleatum, UniProt Q8RI14)
T1 construct: gene FN1822; full-length, 169 residues, N-terminal His6 tag (pET15b) cut with thrombin; expressed in E. coli BL21(DE3)pLysS; monomer
Test: X-ray crystal structure, […] A
Assay type: binding
Conditions: heme-bound protein; FMN copurified

T1 sequence (Q8RI14 entry or part of it): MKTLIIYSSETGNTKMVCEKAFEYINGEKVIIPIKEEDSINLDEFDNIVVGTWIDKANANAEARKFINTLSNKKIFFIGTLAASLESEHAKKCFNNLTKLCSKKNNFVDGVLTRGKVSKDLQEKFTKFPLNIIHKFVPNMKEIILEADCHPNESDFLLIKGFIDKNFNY

Cc1cc2nc3c(=O)[nH]c(=O)nc-3n(C[C@H](O)[C@H](O)[C@H](O)COP(=O)(O)O)c2cc1C [FMN]
X-ray crystal structure, 1.6 A: The FMN cofactor is situated at the carboxyl-terminal end of the β-parallel sheet
